Molecules are shown by their SMILES. pIC50: −log10 of the molar value. Read-outs that look alike come from different tables or passages of the source. Some results are limits rather than exact numbers.

The target of assay [1] is T1, His-GST-TVMV-hRIPK1(1-324) (Homo sapiens, UniProt Q13546).
T1 construct: The coding region of human RIPK1(1-324) flanked by NdeI site at 5′ end; made in house; host or cells: Spodoptera frugiperda Sf9 insect cells (baculovirus, Bac-to-Bac)
T1 sequence (Q13546 1-324): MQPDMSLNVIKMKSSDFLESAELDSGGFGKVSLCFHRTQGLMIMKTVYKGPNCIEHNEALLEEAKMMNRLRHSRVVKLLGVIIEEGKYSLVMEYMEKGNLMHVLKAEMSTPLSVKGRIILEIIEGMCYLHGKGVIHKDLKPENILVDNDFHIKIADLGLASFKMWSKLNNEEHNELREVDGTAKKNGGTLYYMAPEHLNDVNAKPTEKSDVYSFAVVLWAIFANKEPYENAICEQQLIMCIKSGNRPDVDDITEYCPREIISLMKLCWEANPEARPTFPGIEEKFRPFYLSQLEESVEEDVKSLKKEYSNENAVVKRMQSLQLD
The assay can be described thus: biochemical. Particulars: read-out: RIPK1 IC50. The format is binding.

Assay [2] deals with MLKL phosphorylation in HT29-L23 human colorectal adenocarcinoma cells. Kind of assay: MLKL phosphorylation high-content assay. The format is cell-based.
[3] abbreviates: HTRF probe displacement, 1 h at rt.
Setting [4] is: read-out: pMLKL IC50, HT29-L23 cells, necroptosis induced with TNFα, SMAC mimetic and Z-VAD, 6 h, maximal inhibition defined by Nec1s.
[5] abbreviates: Homo sapiens, 6 h, read-out: pMLKL IC50, HT29-L23 cells, necroptosis induced with TNFα, SMAC mimetic and Z-VAD, 6 h, maximal inhibition defined by Nec1s.

As to `Nc1nc2cc(-c3ccc(Cl)c(C(=O)NCC(F)(F)C(O)c4ccc(F)cc4F)c3F)ccn2n1` (single isomer, unassigned) [Example 178, 3-(2-amino-[1,2,4]triazolo[1,5-a]pyridin-7-yl)-6-chloro-N-(3-(2,4-difluorophenyl)-2,2-difluoro-3-hydroxypropyl)-2-fluorobenzamide], the negative-log IC50 (pIC50) in assay [1] (setting [3]) was 9.05; in assay [2] (setting [4]), 7.66.

Take `[2H]C([2H])([2H])C(O)(c1ccc(F)cc1)C(F)CNC(=O)c1c(C(F)F)ccc(-c2ccn3nc(N)nc3c2)c1F` (single isomer, unassigned) [Example 196, 3-(2-amino-[1,2,4]triazolo[1,5-a]pyridin-7-yl)-6-(difluoromethyl)-2-fluoro-N-(2-fluoro-3-(4-fluorophenyl)-3-hydroxybutyl-4,4,4-d3)benzamide]: the pIC50 in assay [1] (setting [3]) is 7.85; in assay [2] (setting [4]) it was 9.00.

For the compound `Cc1ccc(-c2ccn3nc(N)nc3c2)c(F)c1C(=O)NCC(F)(F)C(C)(O)c1ccc(C(F)(F)F)cc1` (centres unmarked) [Example 227, 3-(2-amino-[1,2,4]triazolo[1,5-a]pyridin-7-yl)-N-(2,2-difluoro-3-hydroxy-3-(4-(trifluoromethyl)phenyl)butyl)-2-fluoro-6-methylbenzamide], the pIC50 in assay [1] (setting [3]) was 7.82; in assay [2] (setting [5]), 9.15.

As to `COc1ncc(-c2ccn3nc(N)nc3c2)cc1C(=O)NCCC(O)c1ccc(F)cc1` (centres unmarked) [Example 78], the pIC50 was 6.92 in assay [1] (Table 23, representative compounds from WO2018/148626) and 6.84 in assay [2] (Homo sapiens, Table 23, representative compounds from WO2018/148626, read-out: pMLKL IC50).

With `Cc1ccc(-c2ccn3nc(N)nc3c2)c(F)c1C(=O)NCCC(O)c1cccc(C#N)c1` (centres unmarked) [Example 140, 3-{2-amino-[1,2,4]triazolo[1,5-a]pyridin-7-yl}-N-[3-(3-cyanophenyl)-3-hydroxypropyl]-2-fluoro-6-methylbenzamide], the pIC50 in assay [1] (setting [3]) was 9.22; in assay [2] (setting [5]), 7.89.

Take `Nc1nc2cc(-c3ccc(Cl)c(C(=O)NCCC(O)c4ccc(Cl)cn4)c3F)ccn2n1` (centres unmarked) [Example 81, 3-(2-amino-[1,2,4]triazolo[1,5-a]pyridin-7-yl)-6-chloro-N-(3-(5-chloropyridin-2-yl)-3-hydroxypropyl)-2-fluorobenzamide]: the negative-log IC50 (pIC50) in assay [1] (setting [3]) was 7.62; in assay [2] (setting [5]), 7.42.

`[2H]C([2H])([2H])c1ccc(-c2ccn3nc(N)nc3c2)c(F)c1C(=O)NCC1(C([2H])(O)c2ccc(F)cc2)CC1` (single isomer, unassigned) [Example 310, 3-(2-amino-[1,2,4]triazolo[1,5-a]pyridin-7-yl)-2-fluoro-N-((1-((4-fluorophenyl) (hydroxy)methyl-d)cyclopropyl)methyl)-6-(methyl-d3)benzamide]: the pIC50 in assay [1] (setting [3]) is 8.24; in assay [2] (setting [4]) it was 7.70.

`Cc1ccc(-c2ccn3nc(N)nc3c2)c(F)c1C(=O)NCC(F)(F)C(OP(=O)(O)O)c1ccc(F)cc1` (racemic) [Example 161, 3-(3-(2-amino-[1,2,4]triazolo[1,5-a]pyridin-7-yl)-2-fluoro-6-methylbenzamido)-2,2-difluoro-1-(4-fluorophenyl)propyl dihydrogen phosphate, racemate]: the figures for the pIC50 in assay [1] (setting [3]) and in assay [2] (setting [5]) were below 4.82 and 6.87, respectively.

`Cc1ccc(-c2ccn3nc(N)nc3c2)c(F)c1C(=O)NCC(C)(F)C(O)c1ccc(F)cc1` (single isomer, unassigned) [Example 205, 3-(2-amino-[1,2,4]triazolo[1,5-a]pyridin-7-yl)-2-fluoro-N-(2-fluoro-3-(4-fluorophenyl)-3-hydroxy-2-methylpropyl)-6-methylbenzamide]: the pIC50 in assay [1] (setting [3]) was 8.21; in assay [2] (setting [4]) it was 8.29.

As for `Nc1nc2cc(-c3ccc(Cl)c(C(=O)NCC(F)(F)C(O)c4ccc(C(F)(F)F)cc4F)c3F)ccn2n1` (centres unmarked) [Example 165, 3-(2-amino-[1,2,4]triazolo[1,5-a]pyridin-7-yl)-6-chloro-N-(2,2-difluoro-3-(2-fluoro-4-(trifluoromethyl)phenyl)-3-hydroxypropyl)-2-fluorobenzamide], the pIC50 was 8.80 in assay [1] (setting [3]) and 8.55 in assay [2] (setting [4]).

Consider `Nc1nc2cc(-c3ccc(Cl)c(C(=O)NCC(O)C(F)(F)c4ccc(F)cc4)c3F)ccn2n1` (single isomer, unassigned) [Example 292, 3-(2-amino-[1,2,4]triazolo[1,5-a]pyridin-7-yl)-6-chloro-N-(3,3-difluoro-3-(4-fluorophenyl)-2-hydroxypropyl)-2-fluorobenzamide], for which the pIC50 in assay [1] (setting [3]) was 8.62; in assay [2] (setting [5]), 9.00.

As to `[2H]C([2H])([2H])c1ccc(-c2ccn3nc(N)nc3c2)c(F)c1C(=O)NC[C@H](F)[C@](C)(O)c1ccc(F)cc1` [Example 215, 3-(2-amino-[1,2,4]triazolo[1,5-a]pyridin-7-yl)-2-fluoro-N-((1S,3R)-2-fluoro-3-(4-fluorophenyl)-3-hydroxybutyl)-6-(methyl-d3)benzamide], the pIC50 in assay [1] (setting [3]) is 8.06; in assay [2] (setting [5]), 8.18.

As to `[2H]C([2H])([2H])c1ccc(C(O)C(F)(F)CNC(=O)c2c(C([2H])([2H])[2H])ccc(-c3ccn4nc(N)nc4c3)c2F)cc1` (single isomer, unassigned) [Example 200, 3-(2-amino-[1,2,4]triazolo[1,5-a]pyridin-7-yl)-N-(2,2-difluoro-3-hydroxy-3-(4-(methyl-d3)phenyl)propyl)-2-fluoro-6-(methyl-d3)benzamide], the results for the pIC50 in assay [1] (setting [3]) and in assay [2] (setting [5]) were 8.33 and 9.10, respectively.

In the case of `Cc1ccc(-c2ccn3nc(N)nc3c2)c(F)c1C(=O)NCCC(O)C1CCCCC1` (centres unmarked) [Example 40, 3-(2-amino-[1,2,4]triazolo[1,5-a]pyridin-7-yl)-N-(3-cyclohexyl-3-hydroxypropyl)-2-fluoro-6-methylbenzamide], the pIC50 is 8.42 in assay [1] (setting [3]) and 8.82 in assay [2] (setting [5]).

For the compound `[2H]C([2H])([2H])OC(c1ccc(F)cc1)C(F)(F)CNC(=O)c1c(C)ccc(-c2ccn3nc(N)nc3c2)c1F` (single isomer, unassigned) [Example 236, 3-(2-amino-[1,2,4]triazolo[1,5-a]pyridin-7-yl)-N-(2,2-difluoro-3-(4-fluorophenyl)-3-(methoxy-d3)propyl)-2-fluoro-6-methylbenzamide], the pIC50 in assay [1] (setting [3]) was 8.47; in assay [2] (setting [4]) it was 9.05.

As to `Cc1cc(F)c(-c2ccn3nc(N)nc3c2)cc1C(=O)NCCC(O)c1ccc(F)cc1` (centres unmarked) [Example 8, 5-(2-amino-[1,2,4]triazolo[1,5-a]pyridin-7-yl)-4-fluoro-N-(3-(4-fluorophenyl)-3-hydroxypropyl)-2-methylbenzamide], the figures for the pIC50 in assay [1] (setting [3]) and in assay [2] (setting [5]) were 8.29 and 8.64, respectively.

Take `Nc1nc2cc(-c3ccc(Cl)c(C(=O)NCC(F)(F)C(O)c4cccc(Cl)n4)c3F)ccn2n1` (single isomer, unassigned) [Example 263, 3-(2-amino-[1,2,4]triazolo[1,5-a]pyridin-7-yl)-6-chloro-N-(3-(6-chloropyridin-2-yl)-2,2-difluoro-3-hydroxypropyl)-2-fluorobenzamide]: the results for the pIC50 in assay [1] (setting [3]) and in assay [2] (setting [4]) were 7.68 and 7.32, respectively.

Turning to `Cc1ccc(-c2ccn3nc(N)nc3c2)c(F)c1C(=O)NCC(F)(F)C1(c2ccc(F)cc2)COC1` [Example 246, 3-(2-amino-[1,2,4]triazolo[1,5-a]pyridin-7-yl)-N-(2,2-difluoro-2-(3-(4-fluorophenyl)oxetan-3-yl)ethyl)-2-fluoro-6-methylbenzamide], the pIC50 was 7.82 in assay [1] (setting [3]) and 8.66 in assay [2] (setting [5]).

Turning to `[2H]C([2H])(CC([2H])(O)c1ccc(Cl)cc1)NC(=O)c1c(Cl)ccc(-c2ccn3nc(N)nc3c2)c1F` (centres unmarked) [Example 75, 3-(2-amino-[1,2,4]triazolo[1,5-a]pyridin-7-yl)-6-chloro-N-(3-(4-chlorophenyl)-3-hydroxypropyl-1,1,3-d3)-2-fluorobenzamide], the pIC50 in assay [1] (setting [3]) is 8.49; in assay [2] (setting [4]) it was 8.37.

Consider `Nc1nc2cc(-c3ccc(Cl)c(C(=O)NCC(F)(F)Cc4ccc(F)cc4)c3F)ccn2n1` [Example 207, 3-(2-amino-[1,2,4]triazolo[1,5-a]pyridin-7-yl)-6-chloro-N-(2,2-difluoro-3-(4-fluorophenyl)propyl)-2-fluorobenzamide], for which the results for the pIC50 in assay [1] (setting [3]) and in assay [2] (setting [5]) were 8.74 and 9.22, respectively.

`Nc1nc2cc(-c3ccc(Cl)c(C(=O)NCCC(O)c4ccc(F)cc4)c3F)ccn2n1` (single isomer, unassigned) [Example 80, 3-(2-amino-[1,2,4]triazolo[1,5-a]pyridin-7-yl)-6-chloro-2-fluoro-N-(3-(4-fluorophenyl)-3-hydroxypropyl)benzamide]: the pIC50 in assay [1] (setting [3]) was 8.05; in assay [2] (setting [5]) it was 7.57.

For the compound `COC(c1ccc(F)cc1)C(F)(F)CNC(=O)c1c(C)ccc(-c2ccn3nc(N)nc3c2)c1F` (single isomer, unassigned) [Example 234, 3-(2-amino-[1,2,4]triazolo[1,5-a]pyridin-7-yl)-N-(2,2-difluoro-3-(4-fluorophenyl)-3-methoxypropyl)-2-fluoro-6-methylbenzamide], the pIC50 is 8.08 in assay [1] (setting [3]) and 8.52 in assay [2] (setting [4]).

The values above are taken from patent US11767322B2 (BRISTOL-MYERS SQUIBB COMPANY, priority 2020, dated 2023).
